From patent publication US9808428B2, “Compositions and methods for the delivery of therapeutics” (priority 2014, dated 2017)

System: HIV-1ADA
Experiment: Antiretroviral activity by reverse transcriptase (RT) activity in HIV-1 infected MDM
Type: cell-based
Conditions: 30-100 μM; MDM challenged with HIV-1ADA >15 days after 8 hours of treatment
Procedure: The antiretroviral activity was determined by reverse transcriptase (RT) activity and HIV-1 p24 antigen expression in HIV-1 infected MDM. […] Overall, development of long acting targeted MVC, optionally together with reverse transcriptase, protease and/or integrase inhibitors leads to improved pharmacokinetics of cART and promote improved drug adherence and access.

Cc1nnc(C(C)C)n1C1C[C@H]2CC[C@@H](C1)N2CC[C@H](NC(=O)C1CCC(F)(F)CC1)c1ccccc1 (stereo in doubt) [free MVC, maraviroc]
RT activity reductions compared to untreated infected cells: 22%
